The record followed here is a melting point compilation (Tetko et al.; mined from patent text by program, amines drawn as free bases though some values may be those of a salt).

For `COc1cc(OC(C)C)cc2c1-c1c(OC(C)C)cccc1C2=O`, the melting point fell in the range of 74 to 75 °C.

`COc1ccc(F)cc1N1CCN([C@H]2CC[C@@H](c3c[nH]c4ccc(F)cc43)CC2)CC1` showed a melting point of 152 to 153 °C.

In turn, `CCOC(=O)CC(NC(=O)c1cccc(NC(=O)c2csc(NC(=N)N)n2)c1)c1ccccc1` (racemic) came in with a melting point of 117 °C.

In turn, `CC(=O)OC1SCC2C1N(Cc1ccccc1)C(=O)N2Cc1ccccc1` (stereo not given) gave a melting point of 72 to 74 °C.

`COc1nc(Br)cnc1NS(=O)(=O)c1ccccc1-c1ccc(C)cc1` gave a melting point of 204 to 206 °C.

Compound `Cc1ccc(-c2ccc(C(=O)Nc3cc4ncc(CN5CCCC5)cc4cc3F)cc2)cc1` showed a melting point of 202 to 204 °C.

`CN1C(=O)C(c2cccc(O)c2)(c2cnn(CC(F)(F)F)c2)N=C1N` (stereo not given) displayed a melting point of 118 to 120 °C.

`OCCc1ccc(OCCCCl)cc1` yielded a melting point of 49 to 50 °C.

The compound `CC(=O)CCN1CCC(=C2c3ccccc3CCc3ccccc32)CC1` returned a melting point of 113 to 114 °C.

In turn, `CCCCCCCCCCCCCCCCC(=O)n1cc(F)c(=O)[nH]c1=O` registered a melting point of 102 °C.

In turn, `O=C(CCN1CCC(C(O)c2ccc3ccccc3c2)CC1)Cc1ccc(F)cc1` (stereo not given) had a melting point of 100 to 102 °C.

Regarding `FC(F)(F)c1cc(Cl)c(-n2ncc(-c3ncc[nH]3)n2)c(Cl)c1`, the melting point is 282 to 283 °C.

Compound `CC(C)Cn1c(CCCCNC(=O)c2ccccc2)nc2c(N)nc3ccccc3c21` displayed a melting point of 95 to 101 °C.

Compound `O=C(Nc1nc(-c2ccccc2)cs1)c1ccccc1C(c1ccc(O)cc1)c1ccc(O)cc1` returned a melting point of 291 to 292 °C.

Turning to `COc1cc2c(cc1F)C1(CO2)C(=O)N(Cc2ccc(C(F)(F)F)o2)c2ccccc21` (stereo not given), the melting point was 45 to 47 °C.

Compound `O=[N+]([O-])c1cc(-c2csc(-c3cccnc3)n2)cc(O)c1O` showed a melting point of 279 to 281 °C.

`O=S(=O)(c1ccc(C(CC2CCOCC2)c2ccc(-c3ccc(Cn4cncn4)cn3)[nH]2)cc1)C1CC1` (stereo not given) had a melting point of 152 to 153 °C.

Turning to `Fc1ccc2[nH]cc(C3=CCN(CC4COc5cccnc5O4)CC3)c2c1` (stereo not given), the melting point came to 124 °C.

`CCC(Cc1c(I)cc(I)c(NC(=O)CN2CCNCCNCCNCC2)c1I)C(=O)O` (stereo not given): the melting point was 201 °C.

In turn, `CCCCCCNC(=O)n1nc(Oc2ncc(C(F)(F)F)cc2Cl)c(Cl)c1C` displayed a melting point of 57 to 59 °C.

`CC(C)c1cccc(C(C)C)c1NC(=O)CN1CCN(CCCSc2nc3ccccc3o2)CC1` displayed a melting point of 123 to 125 °C.

With `CC(C#N)NNC(N)=O` (stereo not given), the melting point fell in the range of 125 to 128 °C.

As to `NC(=O)N1CC(Oc2ccc(C(F)(F)F)cc2)C1`, the melting point is 176 to 178 °C.

Compound `O=S(=O)(Nc1n[nH]c(SCc2ccc(Oc3ccc(F)cc3)cc2)c1-c1ccccn1)c1c(Cl)cccc1Cl` came in with a melting point of 185 to 186 °C.

Consider `Cn1cc(-c2cccc(C(F)(F)F)c2)c(=O)c(-c2cccs2)c1`, for which the melting point was 185 to 186 °C.

The compound `CNC1([C@@H]2CCN(c3ccc4c(=O)c(C(=O)O)cn5c4c3OC[C@@H]5C)C2)CC1` displayed a melting point of 227 to 229 °C.

As to `CC(C)(C)OC(=O)N1C(C(=O)O)CSC1c1cccnc1` (stereo not given), the melting point lay in the range of 167 to 169 °C.

Consider `Cc1c(C(=O)Nc2ccc(N3CCC(N4CCOCC4)CC3)cc2C#N)cnn1-c1ccc(C(F)(F)F)cc1`, for which the melting point was in the range of 210 to 212 °C.

For the compound `Cc1ccc([N+](=O)[O-])cc1-c1ccccc1`, the melting point was 69 to 71 °C.

`CCOC(=O)N1CCN(c2cn(C)c3nc(OCc4ccccn4)ccc23)C(=O)C1` gave a melting point of 143 °C.

In turn, `CC(C)(C)OC(=O)c1ccc(N2CC(CO)OC2=O)cc1F` (stereo not given) showed a melting point of 148 to 149 °C.

Regarding `CS(=O)(=O)c1ccc(C(CC2CCCC2)C(=O)Nc2cnc(CC#N)cn2)cc1Cl` (stereo not given), the melting point is 79 to 82 °C.

Consider `CC(N1C(=O)C(=O)N(c2ccc(F)cc2F)C1=S)C(C)(C)C` (stereo not given), for which the melting point fell in the range of 155 to 156 °C.

Take `Cc1[nH]c(=O)n(-c2cc(C(=O)OC(C)C)c(Cl)cc2F)c(=O)c1Br`: the melting point is 187 to 189 °C.

Compound `CCCCCCCCCCCCc1nnn(C(C)(C)C(=O)O)n1` came in with a melting point of 68 to 71 °C.

`CN(C/C=C\COCC(=O)O)c1cnc(-c2ccccc2)c(-c2ccccc2)n1`: the melting point was in the range of 128 to 130 °C.

The compound `Cc1c(C)c2c(c(C)c1OCc1ccccc1)CCC(C)(CC=O)O2` (stereo not given) gave a melting point of 70 to 75 °C.

For `C=CC1(S(=O)(=O)CCS(=O)(=O)CC(O)CS(=O)(=O)CCCl)C=CC=CC1` (stereo not given), the melting point was above 200 °C.

In turn, `Fc1cccc2c1OC(CN1CC=C(c3c[nH]c4ccccc34)CC1)CO2` (stereo not given) gave a melting point of 174 to 177 °C.

As for `CCOC(=O)CCc1cccc(CNC(=O)C[C@H]2O[C@H](c3cccc(OC)c3OC)c3cc(Cl)ccc3N(CC(C)(C)CO)C2=O)c1`, the melting point was in the range of 94 to 95 °C.

In turn, `CC(C)(C)OC(=O)COc1ccc(C(=O)O)cc1OCC(=O)OC(C)(C)C` had a melting point of 118 to 120 °C.

Turning to `CS(=O)c1ccc(C2=C(Br)C(=O)C(C)(C)O2)cc1` (stereo not given), the melting point was in the range of 117 to 118 °C.

With `CNc1ccc(/C=C/C(=O)O)cn1`, the melting point is 227 °C.

As to `c1ccc(-c2ccc(-c3nc(-c4ccc(-c5ccccc5)cc4)nc(-c4ccc(-c5ccccc5)cc4)n3)cc2)cc1`, the melting point turned out to be 283 °C.

Regarding `OC(CN1CCN(Cc2ccccc2)CC1)Cn1c2ccc(Br)cc2c2cc(Br)ccc21` (stereo not given), the melting point was in the range of 70 to 75 °C.

As to `CC1(C)SCN(CCCCN2CCN(c3ccc4ccccc4n3)CC2)C1=O`, the melting point was 107 to 111 °C.

For `CCc1nc(C2CCCC2)n2nc(-c3ccc(OC)c(S(=O)(=O)N4CCOCC4)c3)[nH]c(=O)c12`, the melting point is 204 °C.

As for `CC(C)c1nn(-c2ccc(C(F)(F)F)cn2)cc1COc1cc(CCC(=O)O)n(C)n1`, the melting point lay within 141 to 142 °C.

For `CC(C)Cn1c(CNC(=O)OC(C)(C)C)c(-c2ccccc2)c2cc(-c3nc(C#N)cs3)ccc2c1=O`, the melting point is 209 to 211 °C.

In the case of `COc1ccc(OCCCN2CCC(C(O)(c3ccc(F)cc3)c3ccc(F)cc3)CC2)cc1`, the melting point fell in the range of 107 to 108 °C.

`CCOC(=O)Cc1c(C)nc(-c2ccccc2)nc1-c1cccc([N+](=O)[O-])c1` came in with a melting point of 106 to 108 °C.

`S=c1nc(-c2cc(Cl)sc2Cl)[nH]n1Cc1ccccc1` registered a melting point of 160 to 162 °C.

`CC(=O)CCCCCCCC(=O)c1ccc(OCc2ccccc2)c(OCc2ccccc2)c1`: the melting point fell in the range of 72 to 74 °C.

In turn, `Nc1ccccc1-c1ncco1` registered a melting point of 31 to 32 °C.

`COc1ccc(SC2CC(=O)N2CC(=O)O)cc1` (stereo not given) registered a melting point of 78 to 79 °C.

The compound `Cc1cc(Cl)nnc1-c1cccc([N+](=O)[O-])c1` gave a melting point of 169 to 171 °C.

As to `CCOC(=O)c1oc2c(C(=O)c3ccccc3)ccc(OC)c2c1C`, the melting point fell in the range of 137 to 139 °C.

Compound `CCOC(C)=NS(=O)(=O)c1nc(-c2ccccc2Cl)ns1` came in with a melting point of 70 to 72 °C.

In turn, `O=S1c2ccccc2Oc2ccc(-c3nnn[nH]3)cc21` (stereo not given) had a melting point of 267 to 268 °C.

In the case of `N=C(N)c1cccc(CN(C(=O)Nc2ccc(-c3ccccc3S(N)(=O)=O)cc2)c2ccccc2)c1`, the melting point is 201 to 202 °C.

With `Cc1nc(-c2cc(C)c(OCCCc3cc(C4CC4)no3)c(C)c2)no1`, the melting point lay in the range of 50.5 to 51 °C.

`Nn1nc(-c2ccccc2)cc1OCCN1CCCC1` came in with a melting point of 138 °C.

With `CCCc1c(OCCCOc2ccc(C(=O)O)cc2Cl)ccc(C(C)=O)c1O`, the melting point is 171 to 172 °C.

Consider `CC(=O)OC1CCc2oc3ccc(Br)cc3c(=O)c2C1` (stereo not given), for which the melting point amounted to 178 °C.

In turn, `N=C(N)Nc1nc(CCCCNc2c(NCCSCc3csc(NC(=N)N)n3)c(=O)c2=O)cs1` had a melting point of 208 to 210 °C.

`COc1ccc(C(=O)c2ccc3cc(C(=O)c4ccc(OC)cc4)ccc3c2)cc1` returned a melting point of 251 °C.

`NS(=O)(=O)c1cc2[nH]c(-c3nc4cc(Cl)c(S(N)(=O)=O)cc4[nH]3)nc2cc1Cl` had a melting point of 360 °C.

Take `CNC1(c2cccc(NC(=O)c3cc(OC)c(OC)c(OC)c3)c2)NC=Nc2cc(OC)c(OC)cc21` (stereo not given): the melting point lay within 122 to 124 °C.

For `COc1cc(C=CC(=O)OC2CC3C(O)C(OC(=O)C=Cc4cc(OC)c(OC)c(OC)c4)C(C2)N3C)cc(OC)c1OC` (stereo not given), the melting point lay within 59 to 61 °C.

`CCCCCCCCCCCCCCCC(=O)NC(Cc1cc(CP(=O)(O)O)cc(-c2ccccc2)c1)C(=O)O` (stereo not given) showed a melting point of 130 to 140 °C.

For `OC(CCN1CCN(c2ccccn2)CC1)COc1cccc(C(F)(F)F)c1` (stereo not given), the melting point lay in the range of 81 to 81.5 °C.

Compound `CCC12CCC3c4ccc(OC)cc4CCC3C1CC=C2OC(C)=O` (stereo not given) yielded a melting point of 105 to 106 °C.

In the case of `CC(CC(=O)O)C(=O)c1ccc(F)cc1` (stereo not given), the melting point is 75 to 78 °C.

The compound `CC(C)c1cccc(-c2ccc(F)cc2)c1O` had a melting point of 41 to 43 °C.

With `C#Cc1cccc(NC(C)=O)c1`, the melting point fell in the range of 94 to 96 °C.

The compound `Cc1cc(CCC(=O)OC(C)(C)C)nc(-c2nc(=O)c3ccc(Cl)cc3s2)c1` returned a melting point of 162 to 163 °C.

Compound `NC(=O)Cc1c(F)cccc1C(F)(F)F` yielded a melting point of 172 to 174 °C.

Compound `CC(C)C(=O)c1cc2ccncc2[nH]1` had a melting point of 224 to 228 °C.

In turn, `CN(c1cc(OCCCS(C)(=O)=O)cc2cc(C3=NCC(CN4CCN(S(C)(=O)=O)CC4)S3)[nH]c12)S(=O)(=O)c1ccccn1` (stereo not given) gave a melting point of 151 to 153 °C.

For `CCOC(=O)C1CNc2cc(-c3ccccc3)ccc2O1` (stereo not given), the melting point is 141 to 145 °C.

For `Cn1ncc(/C=C/C(=O)Nc2ccc(OCc3nnco3)cc2)c1-c1ccc(F)cc1`, the melting point was in the range of 154 to 155 °C.

For the compound `CC(=O)N1CCC2(CC1)CC(=O)c1cc(S(C)(=O)=O)ccc1O2`, the melting point is 105 to 110 °C.

The compound `Nc1cccc(-n2cnc3c([N+](=O)[O-])cccc32)c1` displayed a melting point of 105 to 110 °C.

The compound `NC(=O)Cc1ccc(-c2ccc(F)cc2F)c(F)c1` had a melting point of 137 to 140 °C.

Consider `O=C(NCc1ccccc1[N+](=O)[O-])C1Cc2ccccc2N1S(=O)(=O)c1ccc(-c2ccc(F)cc2F)cc1` (stereo not given), for which the melting point was 99 to 102 °C.
